Literature values, collected in patent US12233088B2 (Alexion Pharmaceuticals, Inc., priority 2017, dated 2025).

System: patients with Wilson's disease
Details: cited from earlier work; for patients with worsening of neurological symptoms on initiation of treatment: reported

Row | SMILES | patients with worsening of neurological symptoms on initiation of treatment | mean time to neurological worsening from initiation (Litwin et al.) [months] | patients with early neurological worsening, n (%) (of 42 patients with neurological Wilson's disease, Litwin et al.) | children with gastrointestinal adverse events (Polish cohort, Wiernicka et al.) [%] | patients who discontinued treatment because of adverse events (retrospective study) [%]
1 | NCCNCCNCCN [trientine] | approximately 25% | – | – | – | –
2 | CC(C)(S)[C@@H](N)C(=O)O [penicillamine, D-penicillamine] | approximately 25% | 2.3 | 12 (29%) | – | –
3 | [Zn] [zinc] | – | – | – | 40 | 11
